Test results from patent US20040053847A1, “Diastereomeric peptitdes and pharmaceutical compositions comprising them” (priority 2000, published 2004).
pIC50: −log10 of the molar value. Converted amounts (≈) assume the structure as drawn. Square brackets hold non-standard residues; d marks the D form. Peptide text beside a SMILES is read from it.

Legend:
[1] = In vivo toxicity, single i.v. bolus injection in CD1 mice; design: species or system CD1 male mice
Method: The in vivo toxicity of the liposomal peptide 9 preparation composed of the lipids PC/PG (9:1 w/w) at a 10:1 w/w lipid/peptide ratio was examined. Groups of 5 CD1 male mice weighing 24-27 g (5-week old), bred in an animal isolator (IVC racks) under specific pathogen-free (SPF) conditions at 24±1° C., were used. Twelve mg/kg liposomal peptide 9 or peptide 9 alone dissolved in PBS in a dosing volume of 10 ml/kg, were administered by single i.v. bolus injection via the mice tail vein. In parallel, control groups received i.v. injections of equivalent liposomes alone or PBS in a dosing volume of 10 ml/kg.

A549 lung carcinoma = format: cell-based, human; details: 24 h
Method: (§1) Aliquots of 100 μl of tumor cell suspension (about 2.5-5×10^3/well) were placed in 96-well microtiter plates in an atmosphere of 5% CO2 at 37° C. […] At the end of incubation, 20 μl of AlamarBlue 75% reagent was added to each well for another 6-hour incubation before detection of cell viability by fluorescence intensity. Fluorescence intensity was measured using a Spectraflour Plus plate reader with excitation at 530 nm and emission at 590 nm. The assays were used to detect changes in cell proliferation based on the ability of viable cells to cause AlamarBlue to change from its oxidized (non-fluorescent, blue) to a reduced (fluorescent, red) form. With the results obtained from the AlamarBlue reaction, cell proliferation can be quantified and metabolic activity of viable cells can be examined.

[2] = test system: MCF-7 breast adenocarcinoma; format: cell-based, human; details: 24 h
Method: as §1

[3] = test system: SK-MEL- (ATCC HTB-70) malignant melanoma; format: cell-based, human; details: 24 h
Method: as §1

[4] = test system: HT-29 colon adenocarcinoma; format: cell-based, human; details: 24 h
Method: as §1

[5] = test system: PC-3 prostate adenocarcinoma; format: cell-based, human; details: 24 h
Method: as §1

[6] = Cell selectivity, Trypan blue cell viability, LC50; format: cell-based, mouse; details: mouse, NIH-3T3 fibroblasts; 50% cell mortality after 24 h incubation, medium without serum; read-out: Lethal Concentration (LC50), NIH-3T3 fibroblasts
[7] = test system: B16 F10 mouse melanoma cell line; test: In vitro anticancer activity, Trypan blue cell viability, LC50; details: 50% cell mortality after 24 h incubation, medium without serum
Method: The anticancer activity of the diastereomers 1, 2, 8, 9 and 10 was examined against B16 F10 mouse melanoma cell line. Melanoma cells were grown in RPMI-1640 medium supplemented with 10% fetal calf serum and antibiotics, at 37° C., in humidified atmosphere at 5% CO2 and 95% air. In addition, the cell-selectivity of the diastereomeric peptides was studied by examining their effect on NIH-3T3 normal fibroblasts cell line. NIH-3T3 mouse fibroblasts cells were grown in DMEM medium supplemented with 10% bovine calf serum and antibiotics under the same conditions as described above for B16 F10 mouse melanoma cells. Melanoma cells (2×10^5 cells ml^−1) or NIH-3T3 cells (2.5×10^5 cells ml^−1) were seeded in tissue culture plates (3.5 cm). After 48 h, cells were washed thrice with the corresponding medium. Then the cells were incubated at 37° C. in medium (without serum and antibiotics) in the presence of the tested diastereomeric peptides dissolved in PBS, at different concentrations. […] Following 24 h of incubation, the cells were harvested with trypsin (0.25%)-EDTA (0.05%) and centrifuiged for 10 min at 270×g. The precipitated cells were suspended in the corresponding medium and counted in a hemocytometer (Neubauer). Cell viability was determined by Trypan blue dye exclusion.

[8] = test system: Staphylococcus aureus ATCC 6538P
Method: (§2) The antibacterial activity of the peptides was examined in sterile 96-well plates (Nunc F96 microtiter plates) in a final volume of 100 μl as follows: Aliquots (50 μl) of a suspension containing bacteria at concentration of 1×10^6 Colony-Forming Units (CFU)/ml in culture LB (Lauria broth) medium were added to 50 μl of water containing the peptide in serial 2-fold dilutions in water. Inhibition of growth was determined by measuring the absorbance at 600 nm with a Microplate autoreader E1309 (Bio-tek Instruments), after an incubation time of 18-20 h at 37° C. Antibacterial activities were expressed as the minimal inhibitory concentration (MIC), the concentration at which 100% inhibition of growth was observed after 18-20 h of incubation. […]
(§3) The antibacterial activity of the resulting liposomal diastereomeric peptide preparations were examined as described in Example 2 above. The MICs of liposomal peptide 9 in various lipid compositions and peptide/lipid ratios (as described above), or of liposomes at lipid compositions equivalent to the loaded_liposomes (not shown) or peptide 9 alone, were determined using the following bacteria: Acinetobacter baumannii ATCC 19606, and Staphylococcus aureus ATCC 6538P.

[9] = test system: Acinetobacter baumannii ATCC 19606
Method: as §2, §3

human breast MCF-7 cells = test: Xenograft model of human breast MCF-7 cells in SCID mice; format: in vivo; details: mouse, in vivo
Method: The in-vivo anticancer assay was conducted on SCID (Severe Combined Immune Deficiency) mice using the xenograft model of human breast MCF-7 cells. Groups of 6 SCID female mice weighing 18-20 g (6-week old), bred in an animal isolator (IVC racks under specific pathogen-free (SPF) conditions at 24±1° C., were used. Viable human breast carcinoma MCF-7 cells (ATCC HTB-22−1×10^7 cells in 0.2 ml of PBS) were injected subcutaneously (s.c.) into the dorsal side of SCID mice. 50 μg/mouse of estradiol benzoate was injected s.c. weekly as a supplement for 4 weeks. […] Mitomycin at a dose of 2 mg/kg was administered intraperitoneally (IP) twice a week for 5 doses. The tumor size, body weight and the signs of overt animal toxicity after each treatment were recorded and observed. At the end of the experiment, hematological analysis was carried out.

Q: Which Mortality ([1]; 12 mg/kg injected i.v.) does the source give for `CC(C)C[C@H](NC(=O)[C@H](CCCNC(=N)N)NC(=O)[C@@H](CC(C)C)NC(=O)[C@H](CC(C)C)NC(=O)[C@@H](N)CCCCN)C(=O)N[C@@H](CC(C)C)C(=O)N[C@H](CCCCN)C(=O)N[C@H](CCCCN)C(=O)N[C@@H](CC(C)C)C(=O)N[C@H](CC(C)C)C(=O)N[C@@H](CCCNC(=N)N)C(=O)N[C@@H](CC(C)C)C(=O)N[C@H](CC(C)C)C(=O)N[C@@H](CC(C)C)C(=O)N[C@@H](CCCCN)C(N)=O` [Peptide 9, [D]-L^3,10,13,K^7,8-K4R2L9] (H-KL[dL]RLL[dK][dK]L[dL]RL[dL]LK-NH2) here?
A: Its Mortality is 80%.

Q: What about the Incidence of mortality ([1]; 12 mg/kg single i.v. injection) of the same compound?
A: The Incidence of mortality was 4/5.

Q: And the pIC50 (A549 lung carcinoma)?
A: Its pIC50 is 5.85.

Q: What about the pIC50 [2] of the same compound?
A: Its pIC50 is 5.48.

Q: What about the pIC50 [3] of the same compound?
A: Its pIC50 is 5.92.

Q: What about the pIC50 [4] of the same compound?
A: The pIC50 was 5.66.

Q: What about the pIC50 [5] of the same compound?
A: Its pIC50 is 5.80.

Q: What about the CC50 at 24 h [6] of the same compound?
A: Its CC50 at 24 h is 30 µg/mL (≈ 16.1 µM).

Q: What about the “Lethal Concentration (LC50), B16-F10 melanoma” value [7] of the same compound?
A: Its value is 2 µg/mL.

Q: What about the “MIC of liposomal peptide 9, S. aureus” value [8] of the same compound?
A: The value was 12.5 µg/mL.

Q: And the “MIC of liposomal peptide 9, A. baumannii” value [9]?
A: Its value is 3.1 µg/mL.

Q: What about the PLT (human breast MCF-7 cells) of the same compound?
A: The PLT was 1.31e+06 µL⁻¹.

Q: And the RBC (human breast MCF-7 cells)?
A: Its RBC is 11.18 ± 0.11 × 10^6/μl.

Q: What about the “Reduction of RBC” value (human breast MCF-7 cells) of the same compound?
A: Its value is “only a slight reduction in RBC”.

Q: And the “Reduction of WBC and platelets” value (human breast MCF-7 cells)?
A: The value was “did not cause a reduction in WBC and platelets”.

Q: What about the WBC (human breast MCF-7 cells) of the same compound?
A: The WBC was 2220 µL⁻¹.
